Source: patent US20230286906A1, “CANNABINOID DERIVATIVES” (CANOPY GROWTH CORPORATION, priority 2019, published 2023)
Read-outs that look alike come from different tables or passages of the source.

Columns and labels:
human CB2 receptor = target: T1, human CB2 receptor (Homo sapiens, UniProt P34972); assay: CB2 radioligand ([3H]CP 55,940) competitive binding assay; details: for Selectivity CB2: fold difference in selectivity between CB1 and CB2 binding, shown in the column of the receptor with higher affinity
T1 construct: host or cells: CHO-K1 (Chinese hamster ovary) cells, stably transfected; membranes prepared in house
Procedure: Compounds of the present disclosure were tested for CB1 receptor binding affinity and for CB2 receptor binding affinity. As used herein, “binding affinity” is represented by the IC50 value, which was experimentally determined as described herein. The lower the IC50 value the higher the binding affinity. A compound of the present disclosure may be said to have “binding selectivity” if it has a higher binding affinity for one receptor compared to the other.
The membranes were prepared from CHO-K1 (Chinese hamster ovary) cells stably transfected with the human CB2 receptor (Cat. #ES-111-C; Perkin Elmer, Boston, Mass.). The cells were grown adherently and maintained in Ham's F12 medium containing 10% fetal bovine serum (FBS), penicillin, streptomycin and geneticin (G418) at 37° C. in a humid atmosphere of 5% CO2 following the manufacturer's instructions.
For membrane preparation the cells were washed with PBS and scraped off the plates in cold homogenization buffer (25 mM HEPES (pH 7.4), 2 mM EDTA) containing protease inhibitor cocktail (Sigma Cat. #P8340). The cell suspension was homogenized with a Pro-PK-01200D Polytron Homogenizer (Pro Scientific) and then centrifuged for 30 min at 120,000×g. The supernatant was discarded and the pellet was re-suspended in the homogenization buffer and stored at −80° C. until the time of use.
In this experiment, 3H radiolabeled CP 55,940, i.e. [3H]CP 55,940 (Perkin Elmer, Boston, Mass.), was used as a radioligand for the CB2 receptor to determine the binding affinity of compounds for the CB2 receptor (Scheme 4; above).
The competition binding experiments (single dose and dose-response) were performed by incubating 0.6 nM of [3H]CP55,940 (specific activity 101 Ci/mmol, Perkin Elmer) and different concentrations of compounds disclosed herein with membranes prepared as above from CHO-K1 cells expressing human CB2 receptor (1 μg of protein/well), 50 mM Tris-HCl (pH 7.4), 5 mM MgCl2, 1 mM CaCl2, and 2 mg/mL BSA.
For the single dose experiments, the compound stocks (usually 10 mM in DMSO) were diluted to working stocks in the binding buffer to give the final compound concentrations of 10 μM and 1 μM. For the dose-response experiments the test compounds were sequentially diluted to provide the desired concentration range for the IC50 determination. In each case the compounds were pre-incubated with the membrane for 20 min, before adding the radioligand.
After incubation with the radioligand for 60 min at 37° C., the incubation was terminated by rapid filtration of assay mixture through MultiScreen®HTS^+ 96-well filter plates (Millipore, Cat. #MSFCNXB), pre-soaked for 60 min with 50 mM Tris-HCl (pH 7.4) containing 0.33% polyethylenimine (PEI). The nonspecific binding (NSB) was determined in the presence of 10 μM unlabelled CP55,940. After drying the filter plate at 50° C. for at least 60 min, the filter-bound radioactivity was determined by scintillation spectrometry using the 1450 MicroBeta Plate Counter (Perkin Elmer, Boston, Mass.). From the dose-response experiments, the IC50 values were determined (see Table 1, CB2 IC50).

human CB1 receptor = target: T2, human CB1 receptor (Homo sapiens, UniProt P21554); assay: CB1 radioligand ([3H]CP 55,940) competitive binding assay
T2 construct: host or cells: CHO-K1 (Chinese hamster ovary) cells, stably transfected; membranes prepared in house

[1] = displacement of 0.6 nM [3H]CP55,940, CHO-K1 membranes expressing human CB2, read-out: CB2 IC50
[2] = displacement of 0.8 nM [3H]CP 55,940, CHO-K1 membranes expressing human CB1, read-out: CB1 IC50

T2 sequence (P21554 whole entry): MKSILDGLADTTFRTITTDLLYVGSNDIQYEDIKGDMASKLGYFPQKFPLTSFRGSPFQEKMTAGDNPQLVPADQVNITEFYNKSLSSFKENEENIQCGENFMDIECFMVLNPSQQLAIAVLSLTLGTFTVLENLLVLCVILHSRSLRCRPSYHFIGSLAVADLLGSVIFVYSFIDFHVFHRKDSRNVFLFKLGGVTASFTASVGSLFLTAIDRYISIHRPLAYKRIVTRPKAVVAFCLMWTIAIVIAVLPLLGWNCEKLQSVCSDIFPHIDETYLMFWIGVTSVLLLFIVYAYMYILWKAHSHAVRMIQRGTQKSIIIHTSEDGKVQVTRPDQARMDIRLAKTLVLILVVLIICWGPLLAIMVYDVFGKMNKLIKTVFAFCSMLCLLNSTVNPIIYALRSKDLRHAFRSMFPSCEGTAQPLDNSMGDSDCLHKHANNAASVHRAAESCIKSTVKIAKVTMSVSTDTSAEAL
T1 sequence (P34972 whole entry): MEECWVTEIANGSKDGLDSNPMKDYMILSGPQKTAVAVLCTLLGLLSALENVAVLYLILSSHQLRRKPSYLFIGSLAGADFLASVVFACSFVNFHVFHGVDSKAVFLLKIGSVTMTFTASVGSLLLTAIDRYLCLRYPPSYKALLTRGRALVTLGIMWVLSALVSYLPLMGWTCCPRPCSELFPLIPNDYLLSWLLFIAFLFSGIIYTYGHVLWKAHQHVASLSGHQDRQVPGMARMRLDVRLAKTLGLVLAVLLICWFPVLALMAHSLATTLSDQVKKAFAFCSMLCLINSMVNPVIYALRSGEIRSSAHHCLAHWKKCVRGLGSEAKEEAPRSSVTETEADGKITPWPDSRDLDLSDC

## CCCCCc1c(CN(C)C(=O)OC)c(O)c(CC=C(C)CCC=C(C)C)c(O)c1CN(C)C(=O)OC [Compound 59, dimethyl ((5-(3,7-dimethylocta-2,6-dien-1-yl)-4,6-dihydroxy-2-pentyl-1,3-phenylene)bis(methylene))bis(methylcarbamate)]
Human CB2 receptor; [1]
  IC50: 500 to 990 nM
Human CB2 receptor
  Selectivity CB2: 1.49
Human CB1 receptor; [2]
  IC50: 500 to 990 nM

## CCCCCc1cc(O)c(C/C=C(\C)CCC=C(C)C)c(O)c1C(=O)N1CCCC1 [Compound 41, (3-(3,7-dimethylocta-2,6-dien-1-yl)-2,4-dihydroxy-6-pentylphenyl)(pyrrolidin-1-yl)methanone]
Human CB2 receptor; [1]
  IC50: 1000 to 4990 nM
Human CB2 receptor
  Selectivity CB2: 11.54
Human CB1 receptor; [2]
  IC50: > 5000 nM

## CCCCCc1cc(O)c(CC=C(C)CCC=C(C)C)c(O)c1CN(C)C(=O)OC [Compound 58, methyl (3-(3,7-dimethylocta-2,6-dien-1-yl)-2,4-dihydroxy-6-pentylbenzyl)(methyl)carbamate]
Human CB2 receptor; [1]
  IC50: < 500 nM
Human CB2 receptor
  Selectivity CB2: 30.00
Human CB1 receptor; [2]
  IC50: 1000 to 4990 nM

## CCCCCc1cc(O)c(C/C=C(\C)CCC=C(C)C)c(O)c1C(=O)Nc1ccc(F)cc1 [Compound 60, 3-(3,7-dimethylocta-2,6-dien-1-yl)-N-(4-fluorophenyl)-2,4-dihydroxy-6-pentyl benzamide]
Human CB2 receptor; [1]
  IC50: < 500 nM
Human CB2 receptor
  Selectivity CB2: 2.52
Human CB1 receptor; [2]
  IC50: 1000 to 4990 nM

## CCCCCc1cc(O)c(C/C=C(\C)CCC=C(C)C)c(O)c1C(=O)NC [Compound 1, 3-(3,7-dimethylocta-2,6-dien-1-yl)-2,4-dihydroxy-N-methyl-6-pentylbenzamide]
Human CB2 receptor; [1]
  IC50: 1000 to 4990 nM
Human CB2 receptor
  Selectivity CB2: 4.06
Human CB1 receptor; [2]
  IC50: > 5000 nM

## CCCCCc1cc(O)c(C/C=C(\C)CCC=C(C)C)c(O)c1C(=O)NCc1cccnc1 [Compound 62, 3-(3,7-dimethylocta-2,6-dien-1-yl)-2,4-dihydroxy-6-pentyl-N-(pyridin-3-ylmethyl)benzamide]
Human CB2 receptor; [1]
  IC50: 500 to 990 nM
Human CB2 receptor
  Selectivity CB2: 4.71
Human CB1 receptor; [2]
  IC50: 1000 to 4990 nM

## CCCCCc1cc(O)c(C/C=C(\C)CCC=C(C)C)c(O)c1C(=O)N(CC)CC [Compound 50, 3-(3,7-dimethylocta-2,6-dien-1-yl)-N,N-diethyl-2,4-dihydroxy-6-pentylbenzamide]
Human CB2 receptor
  IC50: 1000 to 4990 nM
  Selectivity CB2: 4.80
Human CB1 receptor
  IC50: > 5000 nM

## CCCCCc1cc(O)c(C/C=C(\C)CCC=C(C)C)c(O)c1C(=O)NC1CC1 [Compound 6, N-cyclopropyl-3-(3,7-dimethylocta-2,6-dien-1-yl)-2,4-dihydroxy-6-pentylbenzamide]
Human CB2 receptor; [1]
  IC50: 1000 to 4990 nM
Human CB2 receptor
  Selectivity CB2: 3.41
Human CB1 receptor; [2]
  IC50: 1000 to 4990 nM

## CCCCCc1cc(O)c(C/C=C(\C)CCC=C(C)C)c(O)c1C(=O)Nc1ccc(OC)cc1 [Compound 11, 3-(3,7-dimethylocta-2,6-dien-1-yl)-2,4-dihydroxy-N-(4-methoxyphenyl)-6-pentylbenzamide]
Human CB2 receptor; [1]
  IC50: 500 to 990 nM
Human CB2 receptor
  Selectivity CB2: 2.35
Human CB1 receptor; [2]
  IC50: 1000 to 4990 nM

## CCCCCc1cc(O)c(C/C=C(\C)CCC=C(C)C)c(O)c1C(=O)Nc1cccnc1 [Compound 63, 3-(3,7-dimethylocta-2,6-dien-1-yl)-2,4-dihydroxy-6-pentyl-N-(pyridin-3-yl) benzamide]
Human CB2 receptor
  IC50: 1000 to 4990 nM
  Selectivity CB2: 2.20
Human CB1 receptor
  IC50: 1000 to 4990 nM

## CCCCCc1cc(O)c(C/C=C(\C)CCC=C(C)C)c(O)c1C(=O)N1CCOCC1 [Compound 39]
Human CB2 receptor; [1]
  IC50: < 500 nM
Human CB2 receptor
  Selectivity CB2: 24.32
Human CB1 receptor; [2]
  IC50: > 5000 nM

## CCCCCc1cc(O)c(C/C=C(\C)CCC=C(C)C)c(O)c1C(=O)Nc1ccccc1 [Compound 10, 3-(3,7-dimethylocta-2,6-dien-1-yl)-2,4-dihydroxy-6-pentyl-N-phenylbenzamide]
Human CB2 receptor; [1]
  IC50: 1000 to 4990 nM
Human CB2 receptor
  Selectivity CB2: 4.86
Human CB1 receptor; [2]
  IC50: > 5000 nM

## CCCCCc1cc(O)c(C/C=C(\C)CCC=C(C)C)c(O)c1C(=O)NCc1ccccc1 [Compound 14, N-benzyl-3-(3,7-dimethylocta-2,6-dien-1-yl)-2,4-dihydroxy-6-pentylbenzamide]
Human CB2 receptor; [1]
  IC50: 1000 to 4990 nM
Human CB2 receptor
  Selectivity CB2: 8.57
Human CB1 receptor; [2]
  IC50: > 5000 nM

## CCCCCc1cc(O)c(C/C=C(\C)CCC=C(C)C)c(O)c1C(=O)NCc1ccc(F)cc1 [Compound 61, 3-(3,7-dimethylocta-2,6-dien-1-yl)-N-(4-fluorobenzyl)-2,4-dihydroxy-6-pentylbenzamide]
Human CB2 receptor; [1]
  IC50: < 500 nM
Human CB2 receptor
  Selectivity CB2: 118.29
Human CB1 receptor; [2]
  IC50: 500 to 990 nM
